# Data taken from PubChem BioAssay (NCI).
# Several values for one entry are separate records, joined by “and”; a condition that tells them apart may be missing. Identical values can stand only once.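 How tested: cells in 96-well plates exposed to compound for 48 hours at five concentrations. The concentration for 50% growth inhibition is given as GI50. The concentration for full growth arrest is given as TGI.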
# Assays:
# Assay in all cases: NCI-60 cell line screen, 48 h
# [1] = system: CAKI-1 renal
# [2] = system: MDA-MB-231 breast
# [3] = system: 786-0 renal
# [4] = system: HS 578T breast
# [5] = system: SF-268 CNS
# [6] = system: HOP-62 NSCLC
# [7] = system: RPMI-8226 leukemia
# [8] = system: HCT-116 colon
# [9] = system: MALME-3M melanoma
# [10] = system: HCC-2998 colon
Compound,TGI [1],TGI [2],TGI [3],TGI [4],TGI [5],TGI [6],TGI [7],TGI [8],TGI [9],TGI [10],GI50 [4] [µM],GI50 [6] [µM],GI50 [1] [µM]
CCOC(=O)/C=C(/C(=O)OCC)n1cc(C)c(=O)n(Cc2cnnn2CCCCOC(C)=O)c1=O,21.4 µM,> 100 µM,78.4 µM,> 100 µM,> 100 µM,> 100 µM,46.2 µM,32.8 µM,–,–,–,–,–
CC(NCCS(=O)(=O)O)C(=O)O (stereo not given),> 100 µM,–,–,–,> 100 µM,> 100 µM,> 100 µM,> 100 µM,> 100 µM,> 100 µM,–,–,–
CC(C)n1c(=O)c2nn3c(=O)n(C(C)C)c(=O)c3nn2c1=O,> 100 µM,> 100 µM,> 100 µM,> 100 µM,> 100 µM,> 100 µM,–,> 100 µM,> 100 µM,> 100 µM,–,–,–
O=S1(=O)c2ccccc2N2CCCc3cc(Cl)cc1c32,> 100 µM,> 100 µM,> 100 µM,84.7 µM,> 100 µM,> 100 µM,–,> 100 µM,> 100 µM,> 100 µM,–,–,–
CO[P@]1(=O)O[C@@H](c2ccccc2)[C@H](O)[C@]1(O)c1ccccc1,> 100 µM,> 100 µM,> 100 µM,> 100 µM,> 100 µM,–,> 100 µM,> 100 µM,> 100 µM,–,–,–,–
O=C1CC(O)c2c(Cl)sc(Cl)c21 (stereo not given),9.68 µM,> 61.3 µM,11.2 µM,–,17.8 µM,29.4 µM,59.7 µM,13.8 µM,–,46.3 µM,–,–,–
S=C1CC(c2ccc(Cl)cc2)Sc2ccccc2N1 (stereo not given),> 100 µM,> 100 µM,> 100 µM,40 µM,79.3 µM,35.1 µM,> 100 µM,> 100 µM,> 100 µM,–,–,–,–
O=C1CC(c2cccc(Cl)c2)n2cccc21 (stereo not given),> 100 µM,> 100 µM,> 100 µM,> 100 µM,> 100 µM,> 100 µM,> 100 µM,> 100 µM,–,> 100 µM,–,–,–
Clc1ccc(OCc2nnc(CCCCCCCCc3nnc(COc4ccc(Cl)cc4Cl)o3)o2)c(Cl)c1,53.4 µM,> 100 µM,> 100 µM,–,> 100 µM,–,> 100 µM,> 100 µM,> 100 µM,> 100 µM,–,–,–
COC(=O)CC1C2CC3C(C2=O)C13 (stereo not given),> 100 µM,> 100 µM,> 100 µM,> 100 µM,> 100 µM,> 100 µM,–,> 100 µM,> 100 µM,> 100 µM,–,–,–
CCCCNC(=S)Nc1nc(C(=O)NNS(=O)(=O)c2ccccc2)cs1,69.5 µM,68.8 µM,> 100 µM,–,> 100 µM,> 100 µM,> 100 µM,69.5 µM,> 100 µM,97.7 µM,–,–,–
CCN(CC)C(=O)CCCCCCCCC1CO1 (stereo not given),> 100 µM,> 100 µM,> 100 µM,> 100 µM,> 100 µM,> 100 µM,> 100 µM,> 100 µM,> 100 µM,–,–,–,–
COc1ccc(-c2cc(-c3ccc(Nc4ccnc5cc(Cl)ccc45)cc3)nc(N)c2C#N)c2ccccc12,> 100 µM,> 100 µM,> 100 µM,–,> 100 µM,> 100 µM,> 100 µM,> 100 µM,> 100 µM,> 100 µM,–,–,–
COC1C(O)=C2C(=O)OC(C)(O)/C=C/C=C\C=C/C=C/C(c3ccccc3)NC(=O)/C=C/C=C/C=C/C=C/C2(C)C1O (stereo not given),0.125 µM and 0.0222 µM,0.105 µM and 0.0133 µM,0.0234 µM and 0.0419 µM,0.192 µM and 0.246 µM,0.156 µM and 0.127 µM,0.212 µM and 0.193 µM,–,0.0724 µM and 0.0739 µM,0.16 µM,0.146 µM and 0.048 µM,0.0115,0.041,–
O=C(CCCC(=O)N1CC(CCl)c2ccc([N+](=O)[O-])cc21)N1CC(CCl)c2ccc([N+](=O)[O-])cc21 (stereo not given),> 100 µM,> 100 µM,> 100 µM,–,> 100 µM,> 100 µM,> 100 µM,> 100 µM,–,> 100 µM,–,–,–
CN(C)c1ccc(/C=N/NC2=N/C(=C\c3ccco3)C(=O)N2)cc1,> 100 µM,> 100 µM,> 100 µM,> 100 µM,> 100 µM,> 100 µM,> 100 µM,> 100 µM,> 100 µM,–,–,–,–
c1ccc2c(c1)SC1Sc3ccccc3[S+]21 (stereo not given),44.8 µM,80.3 µM,> 62.4 µM,> 100 µM,39.8 µM,> 100 µM,49.9 µM,> 57 µM,15.5 µM,–,–,–,–
Cn1c(N/N=C/c2ccc(Cl)cc2)nc(-c2ccc(Cl)cc2)c(C#N)c1=O,> 100 µM,48.8 µM,29.8 µM,86.4 µM,> 100 µM,25.1 µM,> 100 µM,26.3 µM,91.7 µM,–,–,–,–

Compound,TGI [1],TGI [2],TGI [3],TGI [4],TGI [5],TGI [6],TGI [7],TGI [8],TGI [9],TGI [10],GI50 [4] [µM],GI50 [6] [µM],GI50 [1] [µM]
CN(C)c1ccc(/C=C2\N=C(c3ccccc3)N(c3nc4c(Cl)cc(Cl)cc4s3)C2=O)cc1,> 100 µM,> 100 µM,> 100 µM,> 100 µM,> 100 µM,> 100 µM,77.5 µM,> 100 µM,–,> 100 µM,–,–,–
O=C1/C(=C/c2cccs2)N=C(c2ccccc2)N1C1Nc2cc3c(cc2S1)NC(N1C(=O)/C(=C/c2cccs2)N=C1c1ccccc1)S3 (stereo not given),> 100 µM,> 100 µM,43.1 µM,61.5 µM,47.5 µM,> 100 µM,51.7 µM,56 µM,–,43.3 µM,–,–,–
O=C(CSc1nc2ccc(I)cc2c(=O)n1Cc1ccccc1)Nc1ccc(Br)cc1,20.2 µM,89.7 µM,> 100 µM,62.7 µM,28 µM,> 100 µM,> 100 µM,> 100 µM,61.6 µM,–,–,–,–
Cc1ccc2[nH]c(=O)c(-c3cnc(=O)[nH]n3)c(O)c2c1,> 100 µM,> 100 µM,> 100 µM,> 100 µM,> 100 µM,> 100 µM,> 100 µM,> 100 µM,> 100 µM,–,–,–,–
Nc1nc(N)c2ncn(CC(CO)CC(c3ccccc3)P(=O)(O)O)c2n1 (stereo not given),> 100 µM,–,–,–,> 100 µM,> 100 µM,> 100 µM,> 100 µM,> 100 µM,> 100 µM,–,–,–
CC(Nc1cc(Cl)cc(Cl)c1)c1ccncc1 (stereo not given),52.4 µM,–,51.3 µM,> 100 µM,51.9 µM,33.5 µM,42.5 µM,31.6 µM,54.9 µM,37.1 µM,–,–,–
CC(=O)C(=C(I)I)c1ccccc1,3.66 µM,51.4 µM,40.3 µM,–,52.6 µM,38.7 µM,–,29.4 µM,25.6 µM,72 µM,–,–,–
c1ccc(N=NNNc2ccc(-c3nc4ccccc4[nH]3)cc2)cc1,> 100 µM,> 100 µM,> 100 µM,89.1 µM,–,> 100 µM,42.4 µM,> 100 µM,77.3 µM,–,–,–,–
C=C[C@H]1CN2CC[C@H]1C[C@@H]2[C@@H](O)c1ccnc2ccccc12,> 100 µM,> 100 µM,> 100 µM,8.28 µM,> 100 µM,> 100 µM,90 µM,> 100 µM,> 100 µM,–,–,–,–
COc1cc2c(cc1OCCCC(=O)Nc1cc(C(=O)Nc3cc(C(=O)NCCCN(C)C)n(C)n3)n(C)n1)N=CC1CCCN1C2=O (stereo not given),31.2 µM,39.5 µM,35.5 µM,–,41.2 µM,68.7 µM,40.3 µM,34 µM,31.5 µM,37.9 µM,–,–,–
O=C(c1cccs1)N(C(=O)N1CCC(c2ccccc2)CC1)c1ccccc1,> 100 µM,> 100 µM,> 100 µM,> 100 µM,> 100 µM,98.3 µM,70.3 µM,> 100 µM,> 100 µM,–,–,–,–
CC(=O)O[C@H]1/C(=C/c2ccc(N(C)C)cc2)C[C@H]2[C@@H]3CC=C4C[C@@H](N5CCCC5)CC[C@]4(C)[C@H]3CC[C@]12C,–,> 100 µM,> 100 µM,> 100 µM,> 100 µM,> 100 µM,> 100 µM,> 100 µM,> 100 µM,–,–,–,–
Cc1c2cc[n+](C)cc2c(C)c2c1[nH]c1ccccc12,58.8 µM and 27.7 µM,–,–,–,1.87 µM and 1.88 µM,2.64 µM and 2.76 µM,88.7 µM and 92 µM,35.2 µM and 33.6 µM,3.24 µM and 4.03 µM,12.6 µM and 12.9 µM,–,–,–
NCCCCCCNc1cc(-c2cccc(OC(F)(F)F)c2)nc2ccc(N3CCCC3)cc12,3.1 µM,–,–,–,–,–,–,–,–,–,–,–,1.72
Brc1ccc2c(c1)C1=C(CO2)Cc2ccccc2O1,32.3 µM,30.3 µM,43.7 µM,–,41 µM,30.3 µM,61.8 µM,29.9 µM,38.2 µM,32.3 µM,–,–,–
Cc1nnc2c3c(-c4ccccc4)c(-c4ccccc4)oc3nc(N(C)C)n12,> 100 µM,> 100 µM,> 100 µM,> 100 µM,> 100 µM,–,82.3 µM,> 100 µM,–,60.5 µM,–,–,–
Cc1ccc2c3c1O[C@H]1c4nc5ccccc5cc4C[C@@]4(O)[C@@H](C2)N(CC2CC2)CC[C@]314,32.7 µM,23.5 µM,22.7 µM,24.7 µM,25.6 µM,31.3 µM,25.4 µM,17.2 µM,28.2 µM,–,–,–,–
